Measurements reported in paper PMC7946963, “Phosphorylation regulates the binding of autophagy receptors to FIP200 Claw domain for selective autophagy initiation” (Nature Communications, 2021).
Peptide text beside a SMILES is read from it.

How the values were obtained:
[1] = test system: FIP200 Claw (FIP200(1450–1594)); assay: Analytical gel filtration chromatography with FIP200 Claw; format: binding, human; conditions: for interaction of Optineurin fragment with FIP200 (in words): analytical gel filtration chromatography with FIP200(1450–1594), Fig. 3b, c, Supplementary Fig. 15; for interaction of CCPG1 FIR2 variant with FIP200 Claw (in words): analytical gel filtration chromatography and fluorescence spectroscopy-based analyses, Supplementary Fig. 10; for effect of point mutation in Optineurin(169–185) S177E on the interaction with FIP200 (in words): analytical gel filtration chromatography, Supplementary Fig. 16
Experimental: (§1) Purified proteins were loaded on to a […] 10/300 GL column (GE Healthcare) equilibrated with a buffer containing 20 mM Tris-HCl (pH 7.9), 100 mM NaCl and 1 mM DTT. Analytical gel filtration chromatography was carried out on an AKTA FPLC system (GE Healthcare). The fitting results were further output to the Origin 8.5 software and aligned with each other.

[2] = test system: FIP200 Claw Y1564S mutant; assay: Analytical gel filtration chromatography with FIP200 Y1564S mutant; format: binding, human; conditions: Supplementary Fig. 16
Experimental: as §1

[3] = test system: FIP200 Claw K1569A mutant; assay: Analytical gel filtration chromatography with FIP200 K1569A mutant; format: binding, human; conditions: Supplementary Fig. 16
Experimental: as §1

[4] = test system: FIP200 Claw R1573E mutant; assay: Analytical gel filtration chromatography with FIP200 R1573E mutant; format: binding, human; conditions: Supplementary Fig. 16
Experimental: as §1

[5] = test system: FIP200 Claw F1574Q mutant; assay: Analytical gel filtration chromatography with FIP200 F1574Q mutant; format: binding, human; conditions: Supplementary Fig. 16
Experimental: as §1

[6] = molecular target: T1, FIP200 Claw domain (residues 1490–1594) (Homo sapiens, UniProt Q8TDY2); assay: Fluorescence polarization (FP) binding assay, FITC-peptide titrated with FIP200 Claw; conditions: N-terminally FITC-labeled peptide (~0.25 μM) titrated with FIP200 Claw (residues 1490–1594), 20 mM Tris pH 7.9, 100 mM NaCl, 1 mM DTT, 25 °C, one-site binding model, performed in triplicate, read-out: Kd (fitted dissociation constant with standard error)
T1 construct: N-terminal Trx-tag/His6-tag or His6-tag/SUMO-tag (vector for this fragment not specified) (N, cleaved yes); made in house; host or cells: E. coli BL21 (DE3)
T1 sequence (Q8TDY2 1490-1594): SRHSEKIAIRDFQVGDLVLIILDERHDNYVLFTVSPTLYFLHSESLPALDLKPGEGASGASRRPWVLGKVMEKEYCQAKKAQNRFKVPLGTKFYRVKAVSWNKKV
Experimental: Fluorescence anisotropy binding assays were performed on the SpectraMax i3x Multi-Mode Detection Platform from Molecular Devices, using a 485 nm excitation filter and a 535 nm emission filter. Peptides were labeled with fluorescein isothiocyanate isomer I (Sigma-Aldrich) at their N-terminals. […] The Kd values were obtained by fitting the titration curves with the classical one-site binding model using GraphPad Prism 6 software.

[7] = test system: all six mammalian ATG8 orthologues; assay: Analytical gel filtration chromatography, statement over all ATG8 orthologues; format: binding; conditions: qualitative analytical gel filtration chromatography; Supplementary Figs. 20 and 21
Experimental: as §1

[8] = test system: different ATG8 proteins (LC3A, LC3B, LC3C, GABARAP, GABARAPL1, GABARAPL2); assay: ITC-based measurements of ATG16L1 FIR with ATG8 proteins; conditions: one-site binding model, peer review file figure
FIP200 Claw = conditions: cited from earlier work
Description: Previous studies have well established a critical role of the FIP200 subunit in the ULK complex for associating with other autophagic factors, especially some autophagy receptors such as CCPG1, NDP52, and P62[30],[49]–[51].

p-Optineurin(33–209): Optineurin(33–209) fragment phosphorylated in vitro by TBK1
interaction of Optineurin fragment with FIP200 (in words) [1]: much stronger binding ability

Optineurin(169–185) S177E: recombinant phosphomimetic S177E mutant of Optineurin(169–185) that solely includes the LIR motif (NSSGSSEDEFVEIRMAE; UniProt Q96CV9 169-185, looked up, variant S177E)
interaction of Optineurin fragment with FIP200 (in words) [1]: can specifically interact | interaction with FIP200 Y1564S mutant compared with wild type (in words) [2]: significantly attenuate or completely abolish | interaction with FIP200 K1569A mutant compared with wild type (in words) [3]: significantly attenuate or completely abolish | interaction with FIP200 R1573E mutant compared with wild type (in words) [4]: significantly attenuate or completely abolish | interaction with FIP200 F1574Q mutant compared with wild type (in words) [5]: significantly attenuate or completely abolish

L109A: L109A point mutant of CCPG1 FIR2 (TASDDSDIVTAEPPK)
interaction of CCPG1 FIR2 variant with FIP200 Claw (in words) [1]: significantly decrease or essentially disrupt

CC[C@H](C)[C@H](NC(=O)[C@H](CCC(=O)O)NC(=O)[C@@H](NC(=O)[C@H](Cc1ccccc1)NC(=O)[C@H](COP(=O)(O)O)NC(=O)[C@H](CC(=O)O)NC(=O)[C@H](CCC(=O)O)NC(=O)[C@H](CO)NC(=O)[C@@H](N)CO)C(C)C)C(=O)N[C@@H](CCCNC(=N)N)C(=O)N[C@@H](CCSC)C(=O)N[C@@H](C)C(=O)N[C@@H](CCC(=O)O)C(=O)O [p-Optineurin LIR] (HELM PEPTIDE1{S.S.E.D.[O=C([C@H](COP(=O)(O)O)N[*:1])[*:2]].F.V.E.I.R.M.A.E}$$$$V2.0)
Kd [6]: 11.5 ± 1.74 µM

Optineurin(186–209): recombinant human Optineurin fragment, residues 186–209
interaction of Optineurin fragment with FIP200 (in words) [1]: no obvious interactions

D176R: D176R mutation of the phosphomimetic Optineurin(169–185) S177E mutant (NSSGSSEREFVEIRMAE)
effect of point mutation in Optineurin(169–185) S177E on the interaction with FIP200 (in words) [1]: significantly attenuate or completely abolish

CCPG1 FIR2 S104E: recombinant phosphomimetic S104E mutant of CCPG1 FIR2 (residues 99–113) (TASDDEDIVTLEPPK)
interaction of CCPG1 FIR2 variant with FIP200 Claw (in words) [1]: good abilities to interact | interaction with all six mammalian ATG8 orthologues (in words) [7]: can directly interact

I106S: I106S point mutant of CCPG1 FIR2 (TASDDSDSVTLEPPK)
interaction of CCPG1 FIR2 variant with FIP200 Claw (in words) [1]: significantly decrease or essentially disrupt

ATG16L1 FIR: ATG16L1 FIR (residues 235-247), FIP200-interacting region of ATG16L1 (EQDDDIEVIVDET; UniProt Q676U5 235-247, looked up, fragment)
binding to different ATG8 proteins (in words) [8]: can directly bind

D105A: D105A point mutant of CCPG1 FIR2 (TASDDSAIVTLEPPK)
interaction of CCPG1 FIR2 variant with FIP200 Claw (in words) [1]: significantly decrease or essentially disrupt

Optineurin(33–168): recombinant human Optineurin fragment, residues 33–168
interaction of Optineurin fragment with FIP200 (in words) [1]: no obvious interactions

T108A: T108A point mutant of CCPG1 FIR2 (TASDDSDIVALEPPK)
interaction of CCPG1 FIR2 variant with FIP200 Claw (in words) [1]: significantly decrease or essentially disrupt

F178Q: F178Q mutation of the phosphomimetic Optineurin(169–185) S177E mutant (NSSGSSEDEQVEIRMAE)
effect of point mutation in Optineurin(169–185) S177E on the interaction with FIP200 (in words) [1]: significantly attenuate or completely abolish

phosphomimetic quadruple mutations (S349D, S365D, S366D, and S370D) of P62: P62 with phosphomimetic S349D, S365D, S366D, S370D mutations, from ref 49
enhancement of the binding affinity of P62 for FIP200 Claw by phosphomimetic mutations (FIP200 Claw): roughly by twofold
